Converted amounts (≈) assume the structure as drawn.
How the values were obtained:
Type in all cases: cell-based
[1] = tested on: Escherichia coli NIHJ-JC-2; experiment: Antibacterial activity, agar-dilution MIC, organism No. 5; details: Escherichia coli, NIHJJC2, read-out: Minimum Inhibitory Concentration
Outline: (§1)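 Values come from agar-dilution plates prepared with bouillon agar; they represent the least specimen concentration (μg/ml of medium) giving inhibition.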

[2] = tested on: Staphylococcus aureus FDA 209PJc-1; experiment: Antibacterial activity, agar-dilution MIC, organism No. 1; details: Staphylococcus aureus, FDA209PJC1, read-out: Minimum Inhibitory Concentration
Outline: as §1

[3] = tested on: Proteus mirabilis IFO 3849; experiment: Antibacterial activity, agar-dilution MIC, organism No. 19; details: Proteus mirabilis, IFO3849, read-out: Minimum Inhibitory Concentration
Outline: as §1

[4] = tested on: Salmonella shottmuelleri 8006; experiment: Antibacterial activity, agar-dilution MIC, organism No. 11; details: Salmonella, 8006, read-out: Minimum Inhibitory Concentration
Outline: as §1

[5] = tested on: Streptococcus faecium IFO 3826; experiment: Antibacterial activity, agar-dilution MIC, organism No. 27; details: Enterococcus faecium, IFO3826, read-out: Minimum Inhibitory Concentration
Outline: as §1

[6] = tested on: Candida albicans IAM 4905; experiment: Antifungal activity, agar-dilution MIC, organism No. 29; details: Candida albicans, IAM4905, read-out: Minimum Inhibitory Concentration
Outline: as §1

[7] = tested on: Klebsiella pneumoniae PCI-602; experiment: Antibacterial activity, agar-dilution MIC, organism No. 7; details: Klebsiella pneumoniae, PCI602, read-out: Minimum Inhibitory Concentration
Outline: as §1

[8] = tested on: Salmonella typhimurium IID 971; experiment: Antibacterial activity, agar-dilution MIC, organism No. 8; details: Salmonella enterica, read-out: Minimum Inhibitory Concentration
Outline: as §1

[9] = tested on: Staphylococcus aureus MS 353; experiment: Antibacterial activity, agar-dilution MIC, organism No. 3; details: Staphylococcus aureus, MS353, read-out: Minimum Inhibitory Concentration
Outline: as §1

[10] = tested on: Micrococcus luteus ATCC 9341; experiment: Antibacterial activity, agar-dilution MIC, organism No. 25; details: Micrococcus luteus, ATCC9341, read-out: Minimum Inhibitory Concentration
Outline: as §1

[11] = tested on: Streptococcus pyogenes IFO 3340; experiment: Antibacterial activity, agar-dilution MIC, organism No. 26; details: Streptococcus pyogenes, IFO3340, read-out: Minimum Inhibitory Concentration
Outline: as §1

[12] = tested on: Pseudomonas aeruginosa IFO 3445; experiment: Antibacterial activity, agar-dilution MIC, organism No. 15; details: Pseudomonas aeruginosa, IFO3445, read-out: Minimum Inhibitory Concentration
Outline: as §1

[13] = tested on: Salmonella paratyphi-A 1015; experiment: Antibacterial activity, agar-dilution MIC, organism No. 10; details: Salmonella enterica, PARATYPHI, read-out: Minimum Inhibitory Concentration
Outline: as §1

[14] = tested on: Proteus rettgeri IFO 3850; experiment: Antibacterial activity, agar-dilution MIC, organism No. 22; details: Providencia rettgeri, IFO3850, read-out: Minimum Inhibitory Concentration
Outline: as §1

[15] = tested on: Streptococcus pyogenes Cook; experiment: Antibacterial activity, agar-dilution MIC, organism No. 4; details: Streptococcus pyogenes, read-out: Minimum Inhibitory Concentration
Outline: as §1

Proteus vulgaris OX-19 = experiment: Antibacterial activity, agar-dilution MIC, organism No. 20; details: Proteus vulgaris, OX19, read-out: Minimum Inhibitory Concentration
Outline: as §1

[16] = tested on: Salmonella enteritidis G 14; experiment: Antibacterial activity, agar-dilution MIC, organism No. 12; details: Salmonella enterica, ENTERITIDIS, read-out: Minimum Inhibitory Concentration
Outline: as §1

Salmonella typhi 901 = experiment: Antibacterial activity, agar-dilution MIC, organism No. 9; details: Salmonella enterica, TYPHI, read-out: Minimum Inhibitory Concentration
Outline: as §1

Proteus vulgaris HX-19 = experiment: Antibacterial activity, agar-dilution MIC, organism No. 21; details: Proteus vulgaris, HX19, read-out: Minimum Inhibitory Concentration
Outline: as §1

[17] = tested on: Pseudomonas aeruginosa NCTC 10490; experiment: Antibacterial activity, agar-dilution MIC, organism No. 16; details: Pseudomonas aeruginosa, NCTC10490, read-out: Minimum Inhibitory Concentration
Outline: as §1

[18] = tested on: Escherichia coli K12 C600 IAM 1264; experiment: Antibacterial activity, agar-dilution MIC, organism No. 6; details: Escherichia coli, IAM1264, read-out: Minimum Inhibitory Concentration
Outline: as §1

Enterobacter cloacae 963 = experiment: Antibacterial activity, agar-dilution MIC, organism No. 24; details: Enterobacter cloacae, 963, read-out: Minimum Inhibitory Concentration
Outline: as §1

[19] = tested on: Staphylococcus aureus Terajima; experiment: Antibacterial activity, agar-dilution MIC, organism No. 2; details: Staphylococcus aureus, read-out: Minimum Inhibitory Concentration
Outline: as §1

[20] = tested on: Serratia marcescens IAM 1184; experiment: Antibacterial activity, agar-dilution MIC, organism No. 13; details: Serratia marcescens, IAM1184, read-out: Minimum Inhibitory Concentration
Source text: Agar-dilution method was used for determination of the antibacterial activity and antifungal activity while using bouillon-agar culture medium, and the minimum inhibitory concentration of the specimen was expressed by μg/ml of the culture medium.

[21] = tested on: Enterobacter aerogenes ATCC 13048; experiment: Antibacterial activity, agar-dilution MIC, organism No. 23; details: Klebsiella aerogenes, ATCC13048, read-out: Minimum Inhibitory Concentration
Outline: as §1

[22] = tested on: Bacillus subtilis ATCC 6633; experiment: Antibacterial activity, agar-dilution MIC, organism No. 14; details: Bacillus subtilis, ATCC6633, read-out: Minimum Inhibitory Concentration
Outline: as §1

[23] = tested on: Proteus morganii IFO 3848; experiment: Antibacterial activity, agar-dilution MIC, organism No. 18; details: Morganella morganii, IFO3848, read-out: Minimum Inhibitory Concentration
Outline: as §1

[24] = tested on: Aspergillus niger IFO 6342; experiment: Antifungal activity, agar-dilution MIC, organism No. 30; details: Aspergillus niger, IFO6342, read-out: Minimum Inhibitory Concentration
Outline: as §1

[25] = tested on: Pseudomonas aeruginosa PAO 1; experiment: Antibacterial activity, agar-dilution MIC, organism No. 17; details: Pseudomonas aeruginosa, PAO1, read-out: Minimum Inhibitory Concentration
Outline: as §1

| Structure (SMILES) | MIC [1] | MIC [2] | MIC [3] | MIC [4] | MIC [5] | MIC [6] | MIC [7] | MIC [8] | MIC [9] | MIC [10] | MIC [11] | MIC [12] | MIC [13] | MIC [14] | MIC [15] | MIC (Proteus vulgaris OX-19) | MIC [16] | MIC (Salmonella typhi 901) | MIC (Proteus vulgaris HX-19) | MIC [17] | further results |
| --- | --- | --- | --- | --- | --- | --- | --- | --- | --- | --- | --- | --- | --- | --- | --- | --- | --- | --- | --- | --- | --- |
| [C-]#[N+]C12CC3(/C=C/C(=O)Nc4nc[nH]n4)OC3C1O2 (stereo not shown) [compound 78] | 100 mg/L (≈ 386 µM) | 50 mg/L (≈ 193 µM) | 200 mg/L (≈ 772 µM) | 50 mg/L (≈ 193 µM) | 200 mg/L (≈ 772 µM) | > 200 mg/L | 200 mg/L (≈ 772 µM) | 100 mg/L (≈ 386 µM) | 50 mg/L (≈ 193 µM) | 100 mg/L (≈ 386 µM) | 100 mg/L (≈ 386 µM) | > 200 mg/L | 50 mg/L (≈ 193 µM) | 200 mg/L (≈ 772 µM) | 100 mg/L (≈ 386 µM) | 50 mg/L (≈ 193 µM) | 50 mg/L (≈ 193 µM) | 25 mg/L (≈ 96.4 µM) | 50 mg/L (≈ 193 µM) | > 200 mg/L | MIC [18]: 100 mg/L (≈ 386 µM); MIC (Enterobacter cloacae 963): > 200 mg/L; MIC [19]: 200 mg/L (≈ 772 µM); MIC [20]: > 200 mg/L; MIC [21]: > 200 mg/L; MIC [22]: 100 mg/L (≈ 386 µM); MIC [23]: 50 mg/L (≈ 193 µM); MIC [24]: 200 mg/L (≈ 772 µM); MIC [25]: > 200 mg/L |
| [C-]#[N+]C12CC3(/C=C/C(=O)Nc4ccc(O)cc4)OC3C1O2 (stereo not shown) [compound 56] | 25 mg/L (≈ 87.9 µM) | 1.56 mg/L (≈ 5.49 µM) | 12.5 mg/L (≈ 44 µM) | 3.13 mg/L (≈ 11 µM) | 50 mg/L (≈ 176 µM) | 25 mg/L (≈ 87.9 µM) | 1.56 mg/L (≈ 5.49 µM) | 12.5 mg/L (≈ 44 µM) | 1.56 mg/L (≈ 5.49 µM) | 0.78 mg/L (≈ 2.74 µM) | 3.13 mg/L (≈ 11 µM) | > 200 mg/L | 3.13 mg/L (≈ 11 µM) | 3.13 mg/L (≈ 11 µM) | 25 mg/L (≈ 87.9 µM) | 3.13 mg/L (≈ 11 µM) | 6.25 mg/L (≈ 22 µM) | 6.25 mg/L (≈ 22 µM) | 1.56 mg/L (≈ 5.49 µM) | > 200 mg/L | MIC [18]: 25 mg/L (≈ 87.9 µM); MIC (Enterobacter cloacae 963): 200 mg/L (≈ 704 µM); MIC [19]: 6.25 mg/L (≈ 22 µM); MIC [20]: 50 mg/L (≈ 176 µM); MIC [21]: > 200 mg/L; MIC [22]: 12.5 mg/L (≈ 44 µM); MIC [23]: 1.56 mg/L (≈ 5.49 µM); MIC [24]: 50 mg/L (≈ 176 µM); MIC [25]: > 200 mg/L |
